Experimental data taken from patent US20250163029A1, “PYRIDONE OR PYRIMIDONE DERIVATIVE AND APPLICATION THEREOF” (Medshine Discovery Inc., priority 2022, published 2025).
Counter-ions that a name gives are not always drawn.

How the values were obtained:
coronavirus OC43 = assay: Efficacy on suckling mice infected with coronavirus; assay type: in vivo, Suckling mice (C57BL6/J strain); settings: intraperitoneal, once a day day 0 to day 6
Protocol: Objective of assay: The in vivo antiviral activity of the compound against coronavirus was evaluated by observing the percentage of weight change and survival rate of the assay animals in a suckling mouse model infected with coronavirus (COV). The mouse infection model is widely used to determine the protective effect of the compound on virus-infected animals to reflect the antiviral activity of the compound.
Suckling mice (C57BL6/J strain) were inoculated with virus (coronavirus OC43) by intranasal drops on day 0, with an inoculation dose of 3500 p.f.u./mouse. From day 0 to day 6, the mice were treated with a vehicle (5% DMSO+40% polyethylene glycol 400+55% water) or 12.5 mpk or 25 mpk of the compound of the present disclosure for 7 consecutive days, once a day, by intraperitoneal injection, for a total of 7 times, with the first administration time being 2 hours before virus inoculation. The animals were continuously observed from day 0 to day 14, and the body weight, health and survival status were recorded.

plasma protein [1] = assay: Plasma protein binding rate (PPB), cynomolgus monkeys; assay type: in vitro ADME; settings: Cynomolgus monkey plasma, 2 μM, 4 hours dialysis
Protocol: (§1) 597 μL of blank plasma from CD-1 mice, SD rats, beagle dogs, cynomolgus monkeys and humans were weighed, and the working solution of the assay compound or the working solution of warfarin was added, so that the final concentration of the assay compound and warfarin in the plasma sample was 2 μM. The samples were mixed thoroughly. The final concentration of DMSO as an organic phase was 0.5%; 50 μL of the assay compound and warfarin plasma samples were pipetted into a sample receiving plate, and the corresponding volume of blank plasma or buffer was immediately added, so that the final volume of each sample well was 100 μL, and the volume ratio of plasma:dialysis buffer was 1:1, and then the stop solution was added to these samples. The samples were used as the To sample for recovery and stability determination. The assay compound and warfarin plasma samples were added to the dosing end of each dialysis well, and blank dialysis buffer was added to the receiving end corresponding to the dialysis well. Then the dialysis plate was sealed with a gas permeable membrane and placed in a humidified 5% CO2 incubator, and incubated with shaking at 37° C. and 100 rpm for 4 hours. […] After protein precipitation, all samples were analyzed by LC/MS/MS, and the free rate (% Unbound) of the compound was calculated by the following formula: […]

in vivo = assay: in vivo; design: species or system Sprague-Dawley strain rats; settings: Sprague-Dawley, rat
Protocol: (§2) Objective of assay: The druggability of compounds was evaluated by measuring their pharmacokinetic properties in different animal species.
(§3) Assay Materials: C57BL6/J strain mice, Sprague-Dawley strain rats and beagle dogs.
(§4) The pharmacokinetic characteristics of the compound after intravenous and oral administration were assayed in animals using a standard protocol. In the assay, the candidate compound was prepared into a clear solution (intravenous injection) or a homogeneous suspension (oral administration) and administrated to the animal once. Whole blood samples were collected within 24 hours, and centrifuged at 3200 g for 10 minutes. The supernatant was separated to obtain a plasma sample. The blood concentration was quantitatively analyzed by LC-MS/MS analysis method, and pharmacokinetic parameters such as peak concentration, time to peak, clearance rate, half-life, and area under the drug-time curve were calculated.

plasma protein [2] = assay: Plasma protein binding rate (PPB), humans; assay type: in vitro ADME; settings: Human plasma, 2 μM, 4 hours dialysis
Protocol: as §1

[3] = Pharmacokinetic (PK) assay in mice; assay type: in vivo, C57BL6/J strain mice; settings: C57BL6/J, plasma; for AUC: mouse
Protocol: as §2, §3, §4

plasma protein [4] = assay: Plasma protein binding rate (PPB), SD rats; assay type: in vitro ADME; settings: 2 μM, 4 hours dialysis
Protocol: as §1

With `Cn1cnc(Cc2cn(Cc3cc(F)c(F)cc3F)c(Nc3cc4cn(C)nc4cc3Cl)nc2=O)n1` [Compound 4 hydrochloride] the Survival rate (coronavirus OC43; 12.5 mpk, Day 1) was 100%, the “Weight changes (Percent of starting body weight)” value (coronavirus OC43; 12.5 mpk, Day 1) was 5.35 ± 0.58% of starting body weight and the Survival rate (coronavirus OC43; 12.5 mpk, Day 2) was 100%. For the same compound, the “Weight changes (Percent of starting body weight)” value (coronavirus OC43; 12.5 mpk, Day 2) was 14.57 ± 1.37% of starting body weight, the Survival rate (coronavirus OC43; 12.5 mpk, Day 3) was 100% and the “Weight changes (Percent of starting body weight)” value (coronavirus OC43; 12.5 mpk, Day 3) was 22.55 ± 1.37% of starting body weight. The Survival rate (coronavirus OC43; 12.5 mpk, Day 4) was 100%, the “Weight changes (Percent of starting body weight)” value (coronavirus OC43; 12.5 mpk, Day 4) was 30.95 ± 1.19% of starting body weight and the Survival rate (coronavirus OC43; 12.5 mpk, Day 5) was 100%. For the same compound, the “Weight changes (Percent of starting body weight)” value (coronavirus OC43; 12.5 mpk, Day 5) was 39.15 ± 1.15% of starting body weight, the Survival rate (coronavirus OC43; 12.5 mpk, Day 6) was 100% and the “Weight changes (Percent of starting body weight)” value (coronavirus OC43; 12.5 mpk, Day 6) was 42.61 ± 1.80% of starting body weight. The Survival rate (coronavirus OC43; 12.5 mpk, Day 7) was 100%, the “Weight changes (Percent of starting body weight)” value (coronavirus OC43; 12.5 mpk, Day 7) was 49.30 ± 2.16% of starting body weight and the Survival rate (coronavirus OC43; 12.5 mpk, Day 8) was 100%. The “Weight changes (Percent of starting body weight)” value (coronavirus OC43; 12.5 mpk, Day 8) was 55.56 ± 2.05% of starting body weight, the Survival rate (coronavirus OC43; 12.5 mpk, Day 9) was 100% and the “Weight changes (Percent of starting body weight)” value (coronavirus OC43; 12.5 mpk, Day 9) was 57.80 ± 4.27% of starting body weight. The Survival rate (coronavirus OC43; 12.5 mpk, Day 10) was 100%, the “Weight changes (Percent of starting body weight)” value (coronavirus OC43; 12.5 mpk, Day 10) was 60.74 ± 6.34% of starting body weight and the Survival rate (coronavirus OC43; 12.5 mpk, Day 11) was 100%. For the same compound, the “Weight changes (Percent of starting body weight)” value (coronavirus OC43; 12.5 mpk, Day 11) was 60.39 ± 8.87% of starting body weight, the Survival rate (coronavirus OC43; 12.5 mpk, Day 12) was 100% and the “Weight changes (Percent of starting body weight)” value (coronavirus OC43; 12.5 mpk, Day 12) was 65.10 ± 10.85% of starting body weight. For the same compound, the Survival rate (coronavirus OC43; 12.5 mpk, Day 13) was 100%, the “Weight changes (Percent of starting body weight)” value (coronavirus OC43; 12.5 mpk, Day 13) was 76.18 ± 9.69% of starting body weight and the Survival rate (coronavirus OC43; 12.5 mpk, Day 14) was 100%. The “Weight changes (Percent of starting body weight)” value (coronavirus OC43; 12.5 mpk, Day 14) was 96.72 ± 10.96% of starting body weight, the Survival rate (coronavirus OC43; 25 mpk, Day 1) was 100% and the “Weight changes (Percent of starting body weight)” value (coronavirus OC43; 25 mpk, Day 1) was 6.45 ± 1.94% of starting body weight. For the same compound, the Survival rate (coronavirus OC43; 25 mpk, Day 2) was 100%, the “Weight changes (Percent of starting body weight)” value (coronavirus OC43; 25 mpk, Day 2) was 12.35 ± 1.74% of starting body weight and the Survival rate (coronavirus OC43; 25 mpk, Day 3) was 100%. For the same compound, the “Weight changes (Percent of starting body weight)” value (coronavirus OC43; 25 mpk, Day 3) was 22.61 ± 2.41% of starting body weight, the Survival rate (coronavirus OC43; 25 mpk, Day 4) was 100% and the “Weight changes (Percent of starting body weight)” value (coronavirus OC43; 25 mpk, Day 4) was 28.78 ± 2.69% of starting body weight. For the same compound, the Survival rate (coronavirus OC43; 25 mpk, Day 5) was 100%, the “Weight changes (Percent of starting body weight)” value (coronavirus OC43; 25 mpk, Day 5) was 34.72 ± 2.23% of starting body weight and the Survival rate (coronavirus OC43; 25 mpk, Day 6) was 100%. For the same compound, the “Weight changes (Percent of starting body weight)” value (coronavirus OC43; 25 mpk, Day 6) was 39.95 ± 2.01% of starting body weight, the Survival rate (coronavirus OC43; 25 mpk, Day 7) was 100% and the “Weight changes (Percent of starting body weight)” value (coronavirus OC43; 25 mpk, Day 7) was 45.35 ± 2.00% of starting body weight. The Survival rate (coronavirus OC43; 25 mpk, Day 8) was 100%, the “Weight changes (Percent of starting body weight)” value (coronavirus OC43; 25 mpk, Day 8) was 49.97 ± 1.91% of starting body weight and the Survival rate (coronavirus OC43; 25 mpk, Day 9) was 100%. The “Weight changes (Percent of starting body weight)” value (coronavirus OC43; 25 mpk, Day 9) was 55.69 ± 2.31% of starting body weight, the Survival rate (coronavirus OC43; 25 mpk, Day 10) was 100% and the “Weight changes (Percent of starting body weight)” value (coronavirus OC43; 25 mpk, Day 10) was 62.00 ± 2.26% of starting body weight. For the same compound, the Survival rate (coronavirus OC43; 25 mpk, Day 11) was 100%, the “Weight changes (Percent of starting body weight)” value (coronavirus OC43; 25 mpk, Day 11) was 72.13 ± 3.02% of starting body weight and the Survival rate (coronavirus OC43; 25 mpk, Day 12) was 100%. The “Weight changes (Percent of starting body weight)” value (coronavirus OC43; 25 mpk, Day 12) was 87.49 ± 3.63% of starting body weight, the Survival rate (coronavirus OC43; 25 mpk, Day 13) was 100% and the “Weight changes (Percent of starting body weight)” value (coronavirus OC43; 25 mpk, Day 13) was 95.42 ± 4.90% of starting body weight. For the same compound, the Survival rate (coronavirus OC43; 25 mpk, Day 14) was 100%, the “Weight changes (Percent of starting body weight)” value (coronavirus OC43; 25 mpk, Day 14) was 118.37 ± 5.15% of starting body weight and the “PPB_Unbound (%)” value (plasma protein [1]) was 18.8%. The Vd (in vivo; iv, 0.25 mg/kg) was 0.62 L/kg, the clearance (in vivo; iv, 0.25 mg/kg) was 4.1 mL/min/kg and the half-life (in vivo; iv, 0.25 mg/kg) was 2.2 h. For the same compound, the AUC (in vivo; iv, 0.25 mg/kg, AUC) was 2.4 µM·h, the AUC (in vivo; iv, 0.25 mg/kg, AUCfree) was 0.11 µM·h and the Cmax (in vivo; po, 0.5 mg/kg) was 0.53 µM. It also gave a Tmax (in vivo; po, 0.5 mg/kg) of 2 h, a bioavailability (in vivo; po, 0.5 mg/kg) of 103% and a half-life (in vivo; po, 0.5 mg/kg) of 3.4 h. For the same compound, the AUC (in vivo; po, 0.5 mg/kg, AUC) was 4.8 µM·h, the AUC (in vivo; po, 0.5 mg/kg, AUCfree) was 0.22 µM·h and the “PPB_Unbound (%)” value (plasma protein [2]) was 24.3%. It also gave an AUC ([3]; iv, 1 mg/kg, IV, 1 mpk, read-out: AUC) of 32.8 µM·h, an AUC ([3]; iv, 1 mg/kg, IV, 1 mpk, read-out: AUCfree) of 0.92 µM·h and an AUC ([3]; po, 5 mg/kg, PO, 5 mpk, read-out: AUC) of 145 µM·h. It also gave an AUC ([3]; po, 5 mg/kg, PO, 5 mpk, read-out: AUCfree) of 4.1 µM·h, a Vd ([3]; 1 mg/kg, Mouse, IV, 1 mpk) of 0.23 L/kg and a clearance ([3]; 1 mg/kg, Mouse, IV, 1 mpk) of 0.98 mL/min/kg. It also gave a half-life ([3]; 1 mg/kg, Mouse, IV, 1 mpk) of 2.6 h, a Cmax ([3]; 5 mg/kg, Mouse, PO, 5 mpk) of 31 µM and a Tmax ([3]; 5 mg/kg, Mouse, PO, 5 mpk) of 0.75 h. For the same compound, the bioavailability ([3]; 5 mg/kg, Mouse, PO, 5 mpk) was 88%, the half-life ([3]; 5 mg/kg, Mouse, PO, 5 mpk) was 2.7 h and the “PPB_Unbound (%)” value (plasma protein [4]) was 4.5%.
